According to patent US10414769B2, “5,8-dimethyl-9-phenyl-5,8-dihydro-6H-pyrazolo[3,4-h]quinazolin-2-yl)-(1H-pyrazol-3-yl)-amines as IGF-1R/IR inhibitors” (Boehringer Ingelheim International GmbH, priority 2015, dated 2019):

Legend:
Assay type in all cases: biochemical
CAMK2D (CaMKII delta) = biological target: T1, CAMK2D (CaMKII delta) (Homo sapiens, UniProt Q13557); assay: Z'-LYTE kinase selectivity assay CAMK2D
T1 construct: purchased Life Technologies PV 3373
Text: (§1) In order to compare the kinase selectivity of compounds (I) according to the invention with known prior art compounds the commercially provided SelectScreen® Kinase Profiling Service (Z′-LYTE®) was used (Life Technologies GmbH, Darmstadt, Germany) to investigate the ability of the compounds to inhibit a number of different, representatively selected human kinases. Further details regarding this service are available on the Life Technologies website at
(§2) The Z′-LYTE® biochemical assay employs a fluorescence-based, coupled-enzyme format and is based on the differential sensitivity of phosphorylated and non-phosphorylated peptides to proteolytic cleavage. The peptide substrate is labeled with two fluorophores—one at each end—that make up a FRET pair.
(§3) In the primary reaction, the kinase transfers the gamma-phosphate of ATP to a single tyrosine, serine or threonine residue in a synthetic FRET-peptide. In the secondary reaction, a site-specific protease recognizes and cleaves non-phosphorylated FRET-peptides. Phosphorylation of FRET-peptides suppresses cleavage by the Development Reagent. Cleavage disrupts FRET between the donor (i.e., coumarin) and acceptor (i.e., fluorescein) fluorophores on the FRET-peptide, whereas uncleaved, phosphorylated FRET-peptides maintain FRET. A ratiometric method, which calculates the ratio (the Emission Ratio) of donor emission to acceptor emission after excitation of the donor fluorophore at 400 nm, is used to quantitate reaction progress, as shown in the equation below.
(§4) The Test Compounds are screened at 1 μM.
The 2×CAMK2D (CaMKII delta) (# PV 3373)/Ser/Thr 04 (Z′-LYTE® Kinase Assay Kit—Ser/Thr 4 Peptide, # PV 3177) mixture is prepared in 50 mM HEPES pH 7.5, 0.01% BRIJ-35, 10 mM MgCl2, 1 mM EGTA, 4 mM CaCl2), 800 U/mL Calmodulin, 0.02% NaN3. The final 10 μL Kinase Reaction consists of 0.08-0.74 ng CAMK2D (CaMKII delta) and 2 μM Ser/Thr 04 in 50 mM HEPES pH 7.5, 0.01% BRIJ-35, 10 mM MgCl2, 1 mM EGTA, 2 mM CaCl2), 400 U/mL Calmodulin, 0.01% NaN3. After the 1 hour Kinase Reaction incubation, 5 μL of a 1:1024 dilution of Development Reagent A is added.

CSNK1A1 (CK1 alpha 1) = biological target: T2, CSNK1A1 (CK1 alpha 1) (Homo sapiens, UniProt P48729); assay: Z'-LYTE kinase selectivity assay CSNK1A1
T2 construct: purchased Life Technologies PV 3850
T2 sequence (P48729 whole entry): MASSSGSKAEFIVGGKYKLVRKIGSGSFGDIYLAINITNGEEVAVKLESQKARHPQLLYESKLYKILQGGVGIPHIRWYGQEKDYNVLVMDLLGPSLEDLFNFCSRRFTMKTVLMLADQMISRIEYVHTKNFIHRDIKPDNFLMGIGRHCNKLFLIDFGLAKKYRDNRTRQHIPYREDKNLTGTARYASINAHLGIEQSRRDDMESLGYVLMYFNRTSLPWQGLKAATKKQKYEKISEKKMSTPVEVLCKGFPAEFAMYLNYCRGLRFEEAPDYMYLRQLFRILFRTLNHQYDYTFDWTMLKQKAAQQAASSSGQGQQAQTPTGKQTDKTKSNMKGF
Text: as §1, §2, §3, §4
The 2×CSNK1A1 (CK1 alpha 1) (# PV 3850)/Ser/Thr 11 (Z′-LYTE® Kinase Assay Kit—Ser/Thr 11 Peptide, # PV 3670) mixture is prepared in 50 mM HEPES pH 7.5, 0.01% BRIJ-35, 10 mM MgCl2, 1 mM EGTA, 2 mM DTT. The final 10 μL Kinase Reaction consists of 2.6-13.5 ng CSNK1A1 (CK1 alpha 1) and 2 μM Ser/Thr 11 in 50 mM HEPES pH 7.5, 0.01% BRIJ-35, 10 mM MgCl2, 1 mM EGTA, 1 mM DTT. After the 1 hour Kinase Reaction incubation, 5 μL of a 1:16 dilution of Development Reagent B is added.

MAP3K8 (COT) = biological target: T3, MAP3K8 (COT) (Homo sapiens, UniProt P41279); assay: Z'-LYTE kinase selectivity assay MAP3K8
T3 construct: purchased Life Technologies PV 4313
T3 sequence (P41279 whole entry): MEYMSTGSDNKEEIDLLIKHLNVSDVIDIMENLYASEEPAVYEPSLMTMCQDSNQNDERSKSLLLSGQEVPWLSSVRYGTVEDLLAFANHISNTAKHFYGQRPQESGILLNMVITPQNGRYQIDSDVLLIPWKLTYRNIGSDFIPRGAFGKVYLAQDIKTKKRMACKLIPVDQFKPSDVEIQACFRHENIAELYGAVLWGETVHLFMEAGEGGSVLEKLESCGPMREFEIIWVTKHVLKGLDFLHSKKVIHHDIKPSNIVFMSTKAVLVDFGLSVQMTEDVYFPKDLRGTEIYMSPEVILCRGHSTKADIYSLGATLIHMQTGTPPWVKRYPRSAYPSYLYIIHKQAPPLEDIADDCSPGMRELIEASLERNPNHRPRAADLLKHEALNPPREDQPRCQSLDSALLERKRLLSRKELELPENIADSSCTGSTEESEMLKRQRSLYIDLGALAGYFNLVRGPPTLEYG
Text: as §1, §2, §3, §4
After the 1 hour Kinase Reaction incubation, 5 μL of a 1:1024 dilution of Development Reagent A is added.

AMPK A1/B1/G1 = biological target: T4, AMPK A1/B1/G1 (Homo sapiens, UniProt Q13131); assay: Z'-LYTE kinase selectivity assay AMPK A1/B1/G1; conditions: read-out: AMPK A1B1G1 % inhibition
T4 construct: purchased Life Technologies PV 4672
T4 sequence (Q13131 whole entry): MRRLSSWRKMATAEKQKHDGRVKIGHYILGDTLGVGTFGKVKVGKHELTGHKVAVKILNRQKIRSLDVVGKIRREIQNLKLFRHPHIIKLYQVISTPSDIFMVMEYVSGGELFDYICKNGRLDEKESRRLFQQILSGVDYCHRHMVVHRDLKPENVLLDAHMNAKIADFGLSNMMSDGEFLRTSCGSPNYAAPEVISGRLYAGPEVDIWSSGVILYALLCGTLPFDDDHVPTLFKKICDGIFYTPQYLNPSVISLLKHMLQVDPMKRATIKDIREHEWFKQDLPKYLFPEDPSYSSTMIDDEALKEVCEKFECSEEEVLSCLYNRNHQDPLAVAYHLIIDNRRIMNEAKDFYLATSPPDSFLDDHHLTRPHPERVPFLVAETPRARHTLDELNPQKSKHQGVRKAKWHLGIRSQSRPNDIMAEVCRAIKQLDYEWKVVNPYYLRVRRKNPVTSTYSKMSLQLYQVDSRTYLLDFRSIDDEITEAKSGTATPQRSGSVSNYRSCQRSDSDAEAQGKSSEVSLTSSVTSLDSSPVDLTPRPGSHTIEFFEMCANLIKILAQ
T4 sequence (Q9Y478 whole entry partner): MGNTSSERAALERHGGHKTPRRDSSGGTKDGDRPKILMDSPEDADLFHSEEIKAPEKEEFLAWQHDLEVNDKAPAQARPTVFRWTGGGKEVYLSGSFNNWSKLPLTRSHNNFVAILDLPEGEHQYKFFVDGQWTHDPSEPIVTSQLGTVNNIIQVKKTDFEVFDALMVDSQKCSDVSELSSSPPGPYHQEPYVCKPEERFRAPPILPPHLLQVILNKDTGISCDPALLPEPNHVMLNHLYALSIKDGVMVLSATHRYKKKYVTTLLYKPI
T4 sequence (P54619 whole entry partner): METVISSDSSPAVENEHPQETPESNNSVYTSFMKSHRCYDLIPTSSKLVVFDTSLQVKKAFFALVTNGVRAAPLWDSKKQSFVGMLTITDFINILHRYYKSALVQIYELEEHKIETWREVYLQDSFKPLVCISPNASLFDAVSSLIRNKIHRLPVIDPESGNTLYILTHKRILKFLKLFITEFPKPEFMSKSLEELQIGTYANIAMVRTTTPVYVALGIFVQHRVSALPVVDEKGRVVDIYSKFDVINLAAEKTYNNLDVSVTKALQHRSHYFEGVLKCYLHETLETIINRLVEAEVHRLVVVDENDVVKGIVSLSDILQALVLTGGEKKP
Text: as §1, §2, §3, §4
The 2×AMPK A1/B1/G1 (# PV 4672)/Ser/Thr 23 (Z′-LYTE® Kinase Assay Kit—Ser/Thr 23 Peptide, # PV 4644) mixture is prepared in 50 mM HEPES pH 7.5, 0.01% BRIJ-35, 10 mM MgCl2, 1 mM EGTA. The final 10 μL Kinase Reaction consists of 0.43-2.86 ng AMPK A1/B1/G1 and 2 μM Ser/Thr 23 in 50 mM HEPES pH 7.5, 0.01% BRIJ-35, 10 mM MgCl2, 1 mM EGTA. After the 1 hour Kinase Reaction incubation, 5 μL of a 1:4096 dilution of Development Reagent A is added.

TBK1 = biological target: T5, TBK1 (Homo sapiens, UniProt Q9UHD2); assay: Z'-LYTE kinase selectivity assay TBK1
T5 construct: purchased Life Technologies PV 3504
T5 sequence (Q9UHD2 1-729): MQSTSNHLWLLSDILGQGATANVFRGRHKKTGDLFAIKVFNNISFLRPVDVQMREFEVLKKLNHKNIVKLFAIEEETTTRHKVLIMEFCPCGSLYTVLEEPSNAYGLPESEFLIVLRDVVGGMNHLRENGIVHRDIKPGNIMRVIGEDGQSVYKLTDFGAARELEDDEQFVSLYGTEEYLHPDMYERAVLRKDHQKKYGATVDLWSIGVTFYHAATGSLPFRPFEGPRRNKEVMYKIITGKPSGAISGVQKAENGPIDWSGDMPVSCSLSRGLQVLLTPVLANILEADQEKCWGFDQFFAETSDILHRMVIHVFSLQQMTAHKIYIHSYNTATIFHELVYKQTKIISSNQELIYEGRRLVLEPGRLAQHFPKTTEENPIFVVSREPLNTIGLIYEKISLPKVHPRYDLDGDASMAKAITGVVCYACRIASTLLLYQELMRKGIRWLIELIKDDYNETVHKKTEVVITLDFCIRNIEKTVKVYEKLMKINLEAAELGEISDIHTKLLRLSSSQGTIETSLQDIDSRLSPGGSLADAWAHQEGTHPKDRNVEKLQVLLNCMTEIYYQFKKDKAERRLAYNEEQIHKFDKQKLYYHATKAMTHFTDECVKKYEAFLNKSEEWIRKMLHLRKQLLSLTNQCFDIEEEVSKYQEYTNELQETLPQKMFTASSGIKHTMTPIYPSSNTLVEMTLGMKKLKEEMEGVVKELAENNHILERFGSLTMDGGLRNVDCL
Text: as §1, §2, §3, §4
The 2×TBK1 (# PV 3504)/Ser/Thr 05 (Z′-LYTE® Kinase Assay Kit—Ser/Thr 5 Peptide, # PV 3178) mixture is prepared in 50 mM HEPES pH 7.5, 0.01% BRIJ-35, 10 mM MgCl2, 1 mM EGTA. The final 10 μL Kinase Reaction consists of 0.7-9.72 ng TBK1 and 2 μM Ser/Thr 05 in 50 mM HEPES pH 7.5, 0.01% BRIJ-35, 10 mM MgCl2, 1 mM EGTA. After the 1 hour Kinase Reaction incubation, 5 μL of a 1:64 dilution of Development Reagent B is added.

SMILES	inhibition at 1 µM (CAMK2D (CaMKII delta))	inhibition at 1 µM (CSNK1A1 (CK1 alpha 1))	inhibition at 1 µM (MAP3K8 (COT))	inhibition at 1 µM (AMPK A1/B1/G1)	inhibition at 1 µM (TBK1)
C[C@@H]1Cc2nn(C)c(-c3ccccc3)c2-c2nc(Nc3ccn(CCN4CCN(C)CC4)n3)ncc21 [Compound I-1]	53%	16%	27%	36%	38%
C[C@@H]1Cc2nn(C)c(-c3ccccc3)c2-c2nc(Nc3ccn(CCN4CCN(CC(=O)OC5CCOCC5)CC4)n3)ncc21 [Compound I-8]	40%	38%	38%	29%	46%
C[C@@H]1Cc2nn(C)c(-c3ccccc3)c2-c2nc(Nc3ccn(CCN4CCN(CC(C)(C)O)CC4)n3)ncc21 [Compound I-3]	58%	37%	45%	43%	51%
CC(O)CN1CCN(CCn2ccc(Nc3ncc4c(n3)-c3c(nn(C)c3-c3ccccc3)C[C@H]4C)n2)CC1 (some centres unmarked) [Compound I-7]	64%	29%	42%	39%	49%
C[C@@H]1Cc2nn(C)c(-c3ccccc3)c2-c2nc(Nc3ccn(CCN4CCOCC4)n3)ncc21 [Compound I-2]	47%	49%	57%	34%	48%
C[C@@H]1Cc2nn(C)c(-c3ccccc3)c2-c2nc(Nc3ccn(CCN4CCN(CC5CCCO5)CC4)n3)ncc21 (some centres unmarked) [Compound I-9]	69%	37%	37%	35%	57%
COCCN1CCN(CCn2ccc(Nc3ncc4c(n3)-c3c(nn(C)c3-c3ccccc3)C[C@H]4C)n2)CC1 [Compound I-11]	38%	17%	22%	28%	33%
